This note sets out measurements from patent US8524755B2 (priority 2009, dated 2013).

The target of assay [1] is T1, Endothelin ETB (h) (Homo sapiens, UniProt P24530).
T1 construct: expressed in transfected cells; host or cells: CHO cells
T1 sequence (P24530 27-442): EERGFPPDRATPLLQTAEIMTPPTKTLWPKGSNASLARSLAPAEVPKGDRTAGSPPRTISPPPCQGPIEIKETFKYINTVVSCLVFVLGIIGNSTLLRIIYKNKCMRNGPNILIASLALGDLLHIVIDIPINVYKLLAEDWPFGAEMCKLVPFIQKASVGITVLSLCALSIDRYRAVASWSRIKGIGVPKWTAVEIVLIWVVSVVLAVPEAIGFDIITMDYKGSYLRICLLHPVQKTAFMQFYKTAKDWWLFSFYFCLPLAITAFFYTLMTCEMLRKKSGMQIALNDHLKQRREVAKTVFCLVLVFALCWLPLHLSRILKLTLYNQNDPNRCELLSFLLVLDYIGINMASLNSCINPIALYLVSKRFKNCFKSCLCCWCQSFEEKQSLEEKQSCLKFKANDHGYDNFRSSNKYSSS
Kind of assay: Binding ETB (h) (ag). As to conditions: read-out: % Inhibition of Control Specific Binding @ 10 μM. As to the method: (§1) Radioligand binding assay methods utilized to measure the activity of compounds of the invention will be familiar to those skilled in the art. In each assay case, the assay components such as, for example, the cell-type, ligand, reference compound and the like, will be familiar to practitioners of such an assay.
(§2) Analysis and Expression of Results: Compounds of the invention were tested in the biochemical assays and percent inhibition of specific binding was determined. The specific ligand binding to the receptors is defined as the difference between the total binding and the nonspecific binding determined in the presence of an excess of unlabelled ligand. The results are expressed as a percent inhibition of control specific binding (100−((measured specific binding/control specific binding)×100)) obtained in the presence of test compounds.

Assay [2] deals with T2, tyrosine hydroxylase (Rattus norvegicus, UniProt P04177).
T2 construct: rat striatum; from tissue; host or cells: rat striatum
Briefly: Enzyme assay tyrosine hydroxylase. The class given is biochemical. As to conditions: read-out: % Inhibition of Control Values @ 10 μM. From the text:
The enzyme assays provided below will be familiar to those skilled in the art.
Analysis and Expression of Results: The results are expressed as a percent of control specific activity ((measured specific activity/control specific activity)×100) obtained in the presence of the test compounds.

The target in assay [3] is T3, human androgen receptor (Homo sapiens, UniProt P10275, T878A).
T3 construct: The human androgen receptor was expressed in LNCAP cells; endogenous in cells; host or cells: LNCaP cells (supernatant of homogenate)
T3 sequence (P10275 1-920 T878A): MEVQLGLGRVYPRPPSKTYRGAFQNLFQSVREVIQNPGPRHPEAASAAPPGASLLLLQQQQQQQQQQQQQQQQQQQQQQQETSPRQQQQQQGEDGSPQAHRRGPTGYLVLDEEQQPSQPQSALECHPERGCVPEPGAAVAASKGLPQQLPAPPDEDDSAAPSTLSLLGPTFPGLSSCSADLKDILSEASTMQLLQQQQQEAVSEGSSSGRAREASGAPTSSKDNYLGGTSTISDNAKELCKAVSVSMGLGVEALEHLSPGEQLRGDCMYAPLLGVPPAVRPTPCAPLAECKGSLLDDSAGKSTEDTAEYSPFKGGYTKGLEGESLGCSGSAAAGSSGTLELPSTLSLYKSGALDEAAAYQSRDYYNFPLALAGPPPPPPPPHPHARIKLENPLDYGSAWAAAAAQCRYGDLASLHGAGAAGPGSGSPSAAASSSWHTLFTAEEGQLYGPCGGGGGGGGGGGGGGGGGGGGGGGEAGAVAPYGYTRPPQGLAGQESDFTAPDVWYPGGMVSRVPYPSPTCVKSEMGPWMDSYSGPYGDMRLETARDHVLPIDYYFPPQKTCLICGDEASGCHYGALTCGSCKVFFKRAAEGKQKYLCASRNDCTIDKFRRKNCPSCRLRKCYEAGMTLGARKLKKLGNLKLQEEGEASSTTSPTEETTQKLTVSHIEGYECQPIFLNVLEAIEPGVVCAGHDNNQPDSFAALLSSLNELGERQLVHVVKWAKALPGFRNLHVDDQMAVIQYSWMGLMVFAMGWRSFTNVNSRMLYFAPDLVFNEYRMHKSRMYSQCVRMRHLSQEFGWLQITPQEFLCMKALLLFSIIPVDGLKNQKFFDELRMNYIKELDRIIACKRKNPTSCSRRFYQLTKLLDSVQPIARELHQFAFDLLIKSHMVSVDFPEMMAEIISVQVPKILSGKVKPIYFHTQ
Briefly: Human Androgen Receptor (AR) Binding. The settings on record: AR Binding Activity Ki (μM). As to the method: Tissue Preparation: The human androgen receptor was expressed in LNCAP cells which were cultured and harvested by trypsinization from T-175 flasks. The frozen pellet was thawed and resuspended by sonication, then diluted to the appropriate concentration. The homogenate was centrifuged @ 48,000 g for 10 min at 4° C. The supernatant was used. The protein was determined. The tissue was diluted to 0.325 mg/mL with assay buffer so that each tube received 65 μg of protein, or the final assay concentration was 0.260 mg/mL.
Buffers: 25 mM HEPES pH7.4; 1.0 mM EDTA; 10 mM sodium molybdate; 10% Glycerol; 0.5 mM PFSM (dissolved PMSF in EtOH first, before adding to remaining buffer).
Binding Reaction: (Liao, et al. “The Use of a Hydroxylapatite-Filter Steroid Receptor Assay Method in the Study of the Modulation of Androgen Receptor Interaction.” J. Steroid Biochem. (1984), 20:11-17 (with modifications)). […] The binding reaction was initiated with the addition of tissue, and was incubated at 0-4° C. (in refrigerator) for 18-22 h (overnight). The binding reaction was terminated by rapid filtration of the tube contents onto 0.1% PEI treated GF/B filters. The assay tubes were rinsed once with ice-cold […] HEPES, then rapidly rinsed with 6×1 mL/tube of the same wash buffer. Radioactivity trapped on the filters was assessed using liquid scintillation spectrophotometry after soaking the filers for at least 1 h in scintillation cocktail. […] Specific binding was calculated from the difference between the total and non-specific binding. IC50 values were determined by plotting specific binding as a function of test-compound concentration.

Assay [4] deals with GABA transporter. Briefly: Binding GABA transporter (aa). The arrangement: species or system rat. As to the method: as §1, §2
Where [5] appears, read: first column, Reference Compound Mibolerone.
Setting [6] is: second column, Reference Compound Mibolerone.
Setting [7] is: Reference Compound Methyltrienolone.

Molecules are shown by their SMILES.

T2 sequence (P04177 whole entry): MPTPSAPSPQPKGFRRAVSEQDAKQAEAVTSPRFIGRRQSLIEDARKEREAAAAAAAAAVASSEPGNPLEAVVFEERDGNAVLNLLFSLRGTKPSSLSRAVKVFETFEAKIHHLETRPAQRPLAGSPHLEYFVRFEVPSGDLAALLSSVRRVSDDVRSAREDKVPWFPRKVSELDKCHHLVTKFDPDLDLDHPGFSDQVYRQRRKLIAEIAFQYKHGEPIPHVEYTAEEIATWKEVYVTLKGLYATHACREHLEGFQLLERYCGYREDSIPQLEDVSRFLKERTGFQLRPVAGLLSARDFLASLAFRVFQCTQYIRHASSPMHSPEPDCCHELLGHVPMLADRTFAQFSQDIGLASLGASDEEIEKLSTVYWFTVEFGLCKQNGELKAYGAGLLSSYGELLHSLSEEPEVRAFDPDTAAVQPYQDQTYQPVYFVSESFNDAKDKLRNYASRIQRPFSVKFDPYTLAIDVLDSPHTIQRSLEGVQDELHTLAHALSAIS

Usually inhibition stands for the drop in the measured response relative to a control, in per cent. As usually defined, the Ki is a measure of affinity in units of concentration, obtained from inhibition or displacement. A lower Ki goes with higher affinity. Turning to `CC1(C)C(=O)N(c2ccc(C#N)c(C(F)(F)F)c2)C(=O)N1c1ccc(C(N)=O)c(F)c1` [(MIII), 4-(3-(4-cyano-3-(trifluoromethyl)phenyl)-5,5-dimethyl-2,4-dioxoimidazolidin-1-yl)-2-fluorobenzamide], the inhibition at 10 µM in assay [1] was 0%; in assay [2], -2%. Also, the figures for the Ki in assay [3] (setting [5]), in assay [3] (setting [6]) and in assay [3] (setting [7]) were 0.83 µM, 1.5 µM and 0.314 µM, respectively. Further, in assay [4], the “% Inhibition of Control Specific Binding @ 10 μM” value (“% Inhibition” for short) was −35%.

As for `CNC(=O)c1ccc(N2C(=O)N(c3ccc(C#N)c(C(F)(F)F)c3)C(=O)C2(C)C)cc1F` [(MIV), 4-(3-(4-cyano-3-(trifluoromethyl)phenyl)-5,5-dimethyl-2,4-dioxoimidazolidin-1-yl)-2-fluoro-N-methylbenzamide], the inhibition at 10 µM in assay [1] was -3%; in assay [2], -2%. In addition, the figures for the Ki in assay [3] (setting [5]), in assay [3] (setting [6]) and in assay [3] (setting [7]) were 0.69 µM, 0.97 µM and 0.361 µM, respectively. Further, the “% Inhibition” value in assay [4] is recorded as −24%.

In the case of `CC1(C)C(=O)N(c2ccc(C#N)c(C(F)(F)F)c2)C(=S)N1c1ccc(C(N)=O)c(F)c1` [(MII), 4-(3-(4-Cyano-3-(trifluoromethyl)phenyl)-5,5-dimethyl-4-oxo-2-thioxoimidazolidin-1-yl)-2-fluorobenzamide], the inhibition at 10 µM in assay [1] is -4%; in assay [2], 2%. For the same compound, the Ki in assay [3] (setting [5]) came to 0.074 µM; in assay [3] (setting [6]), 0.051 µM; in assay [3] (setting [7]) it was 0.059 µM. In addition, the “% Inhibition” value in assay [4] was 7%.

For `CC1(C)C(=O)N(c2ccc(C#N)c(C(F)(F)F)c2)C(=S)N1c1ccc(C(=O)O)c(F)c1` [(MI), 4-(3-(4-cyano-3-(trifluoromethyl)phenyl)-5,5-dimethyl-4-oxo-2-thioxoimidazolidin-1-yl)-2-fluorobenzoic acid], the inhibition at 10 µM was -7% in assay [1] and -4% in assay [2]. The Ki in assay [3] (setting [7]) is above 10 µM. Besides, the “% Inhibition” value in assay [4] was −16%.
